Key:
[1] = target: T1, hTRAAK (Homo sapiens, UniProt Q9NYG8); assay: Whole cell configuration electrophysiology of hTRAAK current in transfected COS cells; format: cell-based
T1 construct: expressed in transfected cells; host or cells: COS-7 cells, transient DEAE-dextran transfection of pIRES-CD8.hTRAAK
T1 sequence (Q9NYG8 1-393): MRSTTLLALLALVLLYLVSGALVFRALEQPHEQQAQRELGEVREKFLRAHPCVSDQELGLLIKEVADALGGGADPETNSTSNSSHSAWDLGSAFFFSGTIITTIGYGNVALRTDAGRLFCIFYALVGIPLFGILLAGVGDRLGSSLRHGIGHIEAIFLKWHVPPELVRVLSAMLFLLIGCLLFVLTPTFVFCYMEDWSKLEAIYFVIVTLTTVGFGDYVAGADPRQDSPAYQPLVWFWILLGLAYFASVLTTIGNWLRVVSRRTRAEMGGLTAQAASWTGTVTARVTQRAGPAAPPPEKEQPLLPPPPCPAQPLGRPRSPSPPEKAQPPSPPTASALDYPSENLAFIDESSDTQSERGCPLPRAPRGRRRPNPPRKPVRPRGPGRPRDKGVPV
Procedure: Electrophysiological experiments were performed in COS cells transfected in a temporary manner.
It has been shown that certain members of the family of K^+ channels with two P domains (TREK-1 and TASK-1) are opened by volatile general anesthetics (Patel et al., 1999). We, therefore, also investigated the effect of chloroform on hTRAAK.
In fact, the opening of the channel is mediated by a deformation of the membrane (Maingret et al., 1999 (a); Patel et al., 1998).
The COS-7 cells were maintained in Eagle medium as modified by Dulbecco supplemented with 10% fetal calf's serum. The plasmid pIRES-cD8-hTRAAK was transfected using the conventional DEAE dextran procedure. The positive cells were visualized 48 h after transfection using the method of beads covered by the anti-CD8 antibody (Maingret et al., 1999 (a); Maingret et al., 1999 (b)).
For the experiments on whole cells and the outside-in experiments, the pipette solution (INT) contained 150 mM KCl, […], 5 mM EGTA and 10 mM HEPES, pH adjusted with KOH. The bath solution (EXT) contained 150 mM NaCl, 5 mM KCl, 3 mM MgCl2, 1 mM CaCl2 and 10 mM HEPES, pH 7.4 adjusted with NaOH. For the inside-out experiments, the solution in the pipette was EXT and the bath solution was INT. The EXT solution rich in K^+ contained 150 mM KCl in place of 150 mM NaCl. To study the selectivity of the ions, the relationships between the current and the voltage were obtained at different ext. K^+ concentrations. For each concentration, NaCl was replaced in the EXT solution by equimolar KCl.
All of the products were obtained from Sigma. The fatty acids were dissolved in ethanol at the concentration of 100 mM, put under argon and stored at […] for one week.

[2] = target: T1, hTRAAK; assay: Excised patch (outside-out configuration) recording of hTRAAK in transfected COS cells; format: cell-based
Procedure: Under physiological conditions, the current induced by AA is outward rectifying and changes direction at […], n=7 (FIG. 5A). When the exterior Na^+ is replaced by K^+, the current becomes linear and the direction change potential is −0.6±0.8 mV, n=7 (FIG. 5B). hTRAAK is also activated by the polyunsaturated acid decosahexaenoate (10 μM, n=3), but is insensitive to the saturated fatty acids myristate, palmitate, stearate and arachinate (10 μM, n=6 to 8). […] The stimulation by AA of hTRAAK remains then when the patch is excised (FIG. 5C). The current induced by AA observed in an outside-out configuration is outward rectifying and changes direction at the reverse potential of K^+ (FIG. 5C, box). […] In fact, the opening of the channel is mediated by a deformation of the membrane (Maingret et al., 1999 (a); Patel et al., 1998). FIG. 5D illustrates the mechanical sensitivity of hTRAAK. In the reverse patch configuration, the activity of the channel is almost absent at atmospheric pressure. Application of negative pressure opens the channels in a dose-dependent manner.
The COS-7 cells were maintained in Eagle medium as modified by Dulbecco supplemented with 10% fetal calf's serum. The plasmid pIRES-cD8-hTRAAK was transfected using the conventional DEAE dextran procedure. […]

Question: For `Nc1ccncc1` [4AP], which “sensitivity of hTRAAK to K+ channel blocking agent” value ([1]; 3 mM, whole cell configuration) is on record?
Answer: Its value is “insensitive”.

Question: Which “sensitivity of hTRAAK to K+ channel blocking agent” value ([1]; 10 mM, whole cell configuration) does the source give for `CC[N+](CC)(CC)CC` [TEA] here?
Answer: Its value is “insensitive”.

Question: Which results are given for `CCCCC/C=C\C/C=C\C/C=C\C/C=C\CCCC(=O)O` [arachidonic acid]?
Answer: potentiation of human TRAAK activity ([1]; 10 μm, whole cell configuration, at 0 mV, n=19): 630±101%; reversibility of activation ([1]; by means of washing): completely reversible; direction change potential of the induced current ([1]; exterior Na+ replaced by K+, n=7): −0.6±0.8 mV; potential at which the induced current changes direction ([1]; physiological conditions, n=7): -80.6 ± 0.9 mV; stimulation of hTRAAK when the patch is excised [2]: remains

Question: How did the “sensitivity of hTRAAK to saturated fatty acids” value ([1]; 10 μM, n=6 to 8) turn out when `CCCCCCCCCCCCCCCCCCCC(=O)O` [arachinate] was run?
Answer: Its value is “insensitive”.

Question: Which “sensitivity of hTRAAK to K+ channel blocking agent” value ([1]; 1 mM, whole cell configuration) does the source give for `[Ba+2]` [barium] here?
Answer: Its value is “insensitive”.

Question: `ClC(Cl)Cl` [chloroform] was tested. Which “effect on the channel's activity” value ([1]; 0.8 mM, n=8) did it give?
Answer: The value was “no effect”.

Question: How did the “activation of hTRAAK by polyunsaturated fatty acid” value ([1]; 10 μM, n=3) turn out when `CC/C=C\C/C=C\C/C=C\C/C=C\C/C=C\C/C=C\CCC(=O)O` [decosahexaenoate] was run?
Answer: Its value is “activated”.

Question: For `COc1ccc(Cl)cc1C(=O)NCCc1ccc(S(=O)(=O)NC(=O)NC2CCCCC2)cc1` [glibenclamide], which “sensitivity of hTRAAK to K+ channel blocking agent” value ([1]; 10 μM, whole cell configuration) is on record?
Answer: The value was “insensitive”.

Question: For `C=C[C@H]1C[N@@]2CC[C@H]1C[C@@H]2[C@@H](O)c1ccnc2ccc(OC)cc12` [quinidine], which “sensitivity of hTRAAK to K+ channel blocking agent” value ([1]; 100 μm, whole cell configuration) is on record?
Answer: Its value is “insensitive”.

Question: How did the “activation of hTRAAK” value ([1]; no concentration or data printed) turn out when `Nc1nc2ccc(OC(F)(F)F)cc2s1` [riluzole] was run?
Answer: The value was “activated”.

Reference: patent publication US20030049697A1, “Family of mechanosensitive human potassium channels activated by polyunsaturated fatty acids and their use” (CENTRE NATIONAL DE LA RECHERCHE SCIENTIFIQUE, C.N.R.S., priority 2000, published 2003)
